This note sets out measurements from patent US12390435B2, “Electrophiles and electrophile pro-drugs as RAD51 inhibitors” (University of Pittsburgh—Of the Commonwealth System of …, priority 2018, dated 2025).

Like-named read-outs stand apart in the source and are kept apart here.

Experiment [1] concerns NF-κB transcriptional activity. Description: NF-κB luciferase reporter. It is filed as cell-based. Particulars: MDA-MB-231 and MDA-MB-468 cells, 5 μM 2 hr then TNFα 20 ng/mL 4 hr. The method, then: Luciferase-chemiluminescence-based analysis of NF-κB transcriptional activity was performed. MDA-MB-231 and MDA-MB-468 cells (˜70% confluence) in 12-well plates were transiently transfected with a NF-κB-luciferase reporter plasmid (Stratagene, La Jolla, CA) with Lipofectamine 3000. […] Each transfection was performed in triplicate. Luciferase activity was measured using the Dual-luciferase assay kit (Promega). Relative light units (RLU) were measured using a 96-well plate luminometer, according to the manufacturer's instructions (Victor II, PerkinElmer Life Sciences). Protein concentration was determined using the BCA Assay (Thermo Fisher Scientific). Data represents the ratio of treated samples to controls in the context of mean RLU/protein content, +/−SD. Three individual experiments were done, and statistical significance was determined by Kruskal-Wallis test followed by Dunn's post-test with Bonferroni corrections for multiple comparisons.
(In a reporter assay the amount or activity of a reporter protein is the signal.)

Experiment [2] deals with NF-κB target genes. In words: qPCR / RT2 profiler array of NF-κB target genes. It is filed as cell-based, human. As to conditions: 5 μM. The method, then:
Total RNA samples of tissues or cells were extracted using TRIZOL reagents according to the manufacturer's instructions (Invitrogen). Total RNA (1 μg) was reverse transcribed using the iScript cDNA kit (Bio-Rad) according to manufacturer instructions. cDNA (25 ng) was used for each subsequent quantitative real-time PCR (qRT-PCR) reaction. All qRT-PCR was performed on the StepOne PLUS PCR system (Thermo Fisher Scientific) using TaqMan gene expression assays. Fold change was calculated using the ΔΔCt method with 18S ribosomal RNA or human β-actin RNA serving as the internal control. Three individual experiments were done, and statistical significance was determined by one-way analysis of variance followed by Tukey post-test. […] The expression of 84 human NF-κB target genes was analyzed with 96-well plate format as instructed in the manufacturer's handbook (Qiagen). PCR amplification was conducted by StepOne PLUS PCR system and fold change of gene expression was calculated according to the manufacturer's instruction.
For orientation: Real-time PCR tracks product formation cycle by cycle.

Experiment [3] relates to single strand annealing (SSA). Description: GFP reporter assay for single strand annealing. The format is cell-based. Particulars: 5 μM, 48 h. The method, then: FIG. 13B is GFP-reporter assays examining effects of OA-NO2 on different DNA DSB repair pathways described in FIG. 14A. U2OS cells containing the GFP-reporter construct DR-GFP were transfected with an I-SceI plasmid and treated with vehicle (gray), 5 μM OA (green) or 5 μM OA-NO2 (red). The number of GFP positive cells were detected by flow cytometry at 48 h. GFP-reporter measuring NHEJ: n=3, SSA: n=3; HDR: n=3; Alt-EJ: n=1.
Measurements of NHEJ, HR, Alt-EJ and SSA assays were performed as previously described. HR activity was measured by counting GFP-positive cells by flow cytometry at the MWRI flow cytometry core using a BD LSRII (BD Biosciences). RAD51 overexpressing cells were generated by stable transfection of pLVX RAD51 IRES Neo and selection with geneticin (Invitrogen).

For experiment [4], the target named is T1, RAD51 and ABL core (Homo sapiens, UniProt Q06609).
T1 construct: His; made in house; host or cells: E. coli BL21(DE3)pLysS
In words: In vitro RAD51-ABL binding assay. Particulars: purified proteins, 0, 100 or 500 nM, 1 h. It is filed as biochemical. The method, then: FIGS. 3A-3I. […] FIG. 3A. […] FIG. 3B. […] FIG. 3C. […] Three independent experiments were quantified and analyzed by one-way ANOVA * p<0.05. FIG. 3D. […] FIG. 3E. […] FIG. 3F. […] Purified RAD51 and ABL core proteins were incubated with OA-NO2 at 0, 100 or 500 nM for 1 h and ABL was precipitated. The amount of bound RAD51 was detected by immunoblot. FIG. 3G. […] RAD51 interactions with ABL and phosphorylated RAD51 Y315 were probed by IP and immunoblot. FIG. 3H. […] Cells were incubated with biotinylated NO2-OA and then lysates were precipitated with streptavidin coated agarose and detected by immunoblot. FIG. 3I.
Recombinant His-tagged RAD51 in the pET21a vector were transformed into E. coli BL21(DE3)pLysS cells (EMD Millipore) and purified.

For experiment [5], the system named is MDA-MB-231 and MDA-MB-468 cells. In words: Boyden chamber cell migration. As to conditions: 5 μM. It is filed as cell-based. As to the method:
MDA-MB-231 and MDA-MB-468 cells were subjected to cell migration analysis in Boyden chambers. The bottom of a 12-well membrane filter (BD Biosciences) was coated with 10 μg/mL fibronectin for 12 hr before each experiment. […] Cells were trypsinized and washed with migration media (DMEM containing 0.1% fatty acid-free BSA) to remove serum. Cells at a density of 10^5/well were then placed in the upper chamber with migration media containing the same pretreatment conditions. The cells were allowed to migrate towards the 5% FBS chemoattractant for 5 hr. Non-migrated cells from the top surface were removed with cotton swabs. Migrated cells were fixed with 4% paraformaldehyde (Electron Microscopy Sciences), then stained with 0.5% crystal violet (Sigma-Aldrich) for 15 min. Migrated cell density on the filters was observed by microscopy. The crystal violet on migrated cells was de-stained with 10% acetic acid, and the absorbance in individual filters was determined at […] nm. Images are representative of three individual experiments, and statistical comparison among treatments was determined by one-way analysis of variance followed by Tukey post-test.

For experiment [6], the system named is MDA-MB-468 cells. In words: Cell growth assay (FluoReporter dsDNA). The format is cell-based. Particulars: Homo sapiens, 48 hr, 0-15 μM. The method, then:
(§1) Cells were plated at a cell density of 5000 cells per well in 96-well plates. […] Cells were counted using the FluoReporter dsDNA quantitation kit (Molecular Probes) according to the manufacturer's instructions. Fluorescence was measured using a SpectraMax M2 plate reader (Molecular Devices). […] Three individual experiments were done (n=5/each), and statistical comparison between two cell lines across doses was determined by two-way analysis of variance followed by Tukey post-test.

Experiment [7] concerns MCF-10A cells. In words: Cell growth assay (FluoReporter dsDNA). The format is cell-based. Particulars: for IC50: Homo sapiens, MCF-10A. As to the method: as §1
The test system of experiment [8] is MDA-MB-231 cells. Description: Cell growth assay (FluoReporter dsDNA). Particulars: Homo sapiens, MDA-MB-231; 48 hr, 0-15 μM. It is filed as cell-based. The method, then:
as §1

Experiment [9] concerns MCF7 cells. Description: Cell growth assay (FluoReporter dsDNA). The format is cell-based. As to conditions: Homo sapiens, 48 hr, 0-15 μM. The method, then: as §1

T1 sequence (Q06609 whole entry): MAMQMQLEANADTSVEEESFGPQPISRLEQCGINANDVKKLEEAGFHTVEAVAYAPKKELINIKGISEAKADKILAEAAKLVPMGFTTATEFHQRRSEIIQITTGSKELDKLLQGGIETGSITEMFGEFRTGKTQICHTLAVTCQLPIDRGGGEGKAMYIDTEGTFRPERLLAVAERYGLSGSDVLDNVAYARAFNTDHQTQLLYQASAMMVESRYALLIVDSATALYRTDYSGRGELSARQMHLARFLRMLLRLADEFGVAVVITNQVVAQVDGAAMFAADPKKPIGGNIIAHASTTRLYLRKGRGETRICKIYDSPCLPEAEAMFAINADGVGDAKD

Consider `CCCCCCCCC(=CCCCCCCCC(=O)O)[N+](=O)[O-]` [NO2-OA, 10-nitro-octadec-9-enoic acid], for which the “NF-κB-dependent transcription of luciferase” value in [1] is reported as “significantly inhibited”. The “TNFα-induced expression of ICAM-1 and uPA genes” value in experiment [2] (MDA-MB-231 or MDA-MB-468 cells, TNFα 20 ng/mL) is “suppression of TNFα-induced expression of ICAM-1 and uPA genes”. The “mRNA expression of NF-κB target genes (PCR array)” value in experiment [2] (MDA-MB-468 cells, 24 hr) is reported as “decreased the mRNA expression of multiple NF-κB target genes”. Besides, the “effect on single strand annealing” value in experiment [3] was “also inhibits single strand annealing”. Moreover, the “RAD51-ABL core complex formation” value in [4] is reported as “abolished”. In addition, the “basal, non-stimulated migration” value in [5] was “modestly inhibited”. Further, the TNFα-induced cell migration result in experiment [5] (TNFα 20 ng/mL) is given as “significantly inhibited”. The 50% inhibitory concentration (IC50) (in general, the concentration that inhibits the measured activity by half) in [6] is 1.6 ± 0.11 µM; in experiment [7] (read-out: IC50 cell growth, only NO2-OA treatment, probenecid study, no probenecid, 0-25 μM 48 hr) it was 14.2 ± 1.05 µM; in [7] (48 hr, 0-15 μM, read-out: IC50 cell growth), 7.7 ± 1.93 µM; in [8], 2.7 ± 0.11 µM; in experiment [9] it was 11.6 ± 3.59 µM. For the same compound, in [7] (probenecid pretreated versus only NO2-OA), the “decrease of IC50 by probenecid” value is 2 fold.
